The source made the active and inactive calls. No rule for the calls is given here.
Test system: CCRIS mutagenicity, Ames/micronucleus/aberration tests
Assay: CCRIS mutagenicity studies

CCCCC(CC)CNCC(CC)CCCC (stereo not drawn)
mutagenic call (Test System: AMES SALMONELLA TYPHIMURIUM, Strain/Indicator: TA97, Metabolic Activation: HAMSTER, LIVER, S-9, AROCLOR 1254 (10%), Method: PREINCUBATION): inactive; negative
mutagenic call (Test System: AMES SALMONELLA TYPHIMURIUM, Strain/Indicator: TA97, Metabolic Activation: HAMSTER, LIVER, S-9, AROCLOR 1254 (30%), Method: PREINCUBATION): inactive; negative
mutagenic call (Test System: AMES SALMONELLA TYPHIMURIUM, Strain/Indicator: TA97, Metabolic Activation: NONE, Method: PREINCUBATION): inactive; negative
mutagenic call (Test System: AMES SALMONELLA TYPHIMURIUM, Strain/Indicator: TA97, Metabolic Activation: RAT, LIVER, S-9, AROCLOR 1254 (10%), Method: PREINCUBATION): inactive; negative
mutagenic call (Test System: AMES SALMONELLA TYPHIMURIUM, Strain/Indicator: TA97, Metabolic Activation: RAT, LIVER, S-9, AROCLOR 1254 (30%), Method: PREINCUBATION): inactive; negative
mutagenic call (Test System: AMES SALMONELLA TYPHIMURIUM, Strain/Indicator: TA98, Metabolic Activation: HAMSTER, LIVER, S-9, AROCLOR 1254 (10%), Method: PREINCUBATION): inactive; negative
mutagenic call (Test System: AMES SALMONELLA TYPHIMURIUM, Strain/Indicator: TA98, Metabolic Activation: HAMSTER, LIVER, S-9, AROCLOR 1254 (30%), Method: PREINCUBATION): inactive; negative
mutagenic call (Test System: AMES SALMONELLA TYPHIMURIUM, Strain/Indicator: TA98, Metabolic Activation: NONE, Method: PREINCUBATION): inactive; negative
mutagenic call (Test System: AMES SALMONELLA TYPHIMURIUM, Strain/Indicator: TA98, Metabolic Activation: RAT, LIVER, S-9, AROCLOR 1254 (10%), Method: PREINCUBATION): inactive; negative
mutagenic call (Test System: AMES SALMONELLA TYPHIMURIUM, Strain/Indicator: TA98, Metabolic Activation: RAT, LIVER, S-9, AROCLOR 1254 (30%), Method: PREINCUBATION): inactive; negative
mutagenic call (Test System: AMES SALMONELLA TYPHIMURIUM, Strain/Indicator: TA100, Metabolic Activation: HAMSTER, LIVER, S-9, AROCLOR 1254 (10%), Method: PREINCUBATION): inactive; negative
mutagenic call (Test System: AMES SALMONELLA TYPHIMURIUM, Strain/Indicator: TA100, Metabolic Activation: HAMSTER, LIVER, S-9, AROCLOR 1254 (30%), Method: PREINCUBATION): inactive; negative
mutagenic call (Test System: AMES SALMONELLA TYPHIMURIUM, Strain/Indicator: TA100, Metabolic Activation: NONE, Method: PREINCUBATION): inactive; negative
mutagenic call (Test System: AMES SALMONELLA TYPHIMURIUM, Strain/Indicator: TA100, Metabolic Activation: RAT, LIVER, S-9, AROCLOR 1254 (10%), Method: PREINCUBATION): inactive; negative
mutagenic call (Test System: AMES SALMONELLA TYPHIMURIUM, Strain/Indicator: TA100, Metabolic Activation: RAT, LIVER, S-9, AROCLOR 1254 (30%), Method: PREINCUBATION): inactive; negative
mutagenic call (Test System: AMES SALMONELLA TYPHIMURIUM, Strain/Indicator: TA1535, Metabolic Activation: HAMSTER, LIVER, S-9, AROCLOR 1254 (10%), Method: PREINCUBATION): inactive; negative
mutagenic call (Test System: AMES SALMONELLA TYPHIMURIUM, Strain/Indicator: TA1535, Metabolic Activation: HAMSTER, LIVER, S-9, AROCLOR 1254 (30%), Method: PREINCUBATION): inactive; negative
mutagenic call (Test System: AMES SALMONELLA TYPHIMURIUM, Strain/Indicator: TA1535, Metabolic Activation: NONE, Method: PREINCUBATION): inactive; negative
mutagenic call (Test System: AMES SALMONELLA TYPHIMURIUM, Strain/Indicator: TA1535, Metabolic Activation: RAT, LIVER, S-9, AROCLOR 1254 (10%), Method: PREINCUBATION): inactive; negative
mutagenic call (Test System: AMES SALMONELLA TYPHIMURIUM, Strain/Indicator: TA1535, Metabolic Activation: RAT, LIVER, S-9, AROCLOR 1254 (30%), Method: PREINCUBATION): inactive; negative

CC1(C)[C@H](/C=C(\Cl)C(F)(F)F)[C@@H]1C(=O)O[C@@H](C#N)c1cccc(Oc2ccccc2)c1
mutagenic call (End Point: IN VIVO CHROMOSOMAL ABERRATIONS, Test System: BONE MARROW, Species: RAT, Strain/Sex: WISTAR/FEMALE, Route: IP): active; positive (structural changes)
mutagenic call (End Point: IN VIVO MICRONUCLEUS, Test System: BONE MARROW POLYCHROMATIC ERYTHROCYTES, Species: RAT, Strain/Sex: WISTAR/FEMALE, Route: ORAL (GAVAGE)): active; positive
mutagenic call (End Point: IN VIVO MICRONUCLEUS, Test System: BONE MARROW, Species: RAT, Strain/Sex: WISTAR/FEMALE, Route: IP): active; positive
mutagenic call (End Point: IN VIVO MICRONUCLEUS, Test System: POLYCHROMATIC ERYTHROCYTES FROM COLONIC CRYPT EPITHELIAL CELLS, Species: RAT, Strain/Sex: WISTAR/FEMALE, Route: ORAL (GAVAGE)): active; positive

CC(=O)Nc1ccc(/C=C/C(=O)c2ccccc2)cc1
mutagenic call (Test System: AMES SALMONELLA TYPHIMURIUM, Strain/Indicator: TA98, Metabolic Activation: NONE, Method: STANDARD PLATE): inactive; negative
mutagenic call (Test System: AMES SALMONELLA TYPHIMURIUM, Strain/Indicator: TA98, Metabolic Activation: RAT, LIVER, S-9, AROCLOR 1254, Method: STANDARD PLATE): active; positive
mutagenic call (Test System: AMES SALMONELLA TYPHIMURIUM, Strain/Indicator: TA100, Metabolic Activation: NONE, Method: STANDARD PLATE): active; positive
mutagenic call (Test System: AMES SALMONELLA TYPHIMURIUM, Strain/Indicator: TA100, Metabolic Activation: RAT, LIVER, S-9, AROCLOR 1254, Method: STANDARD PLATE): active; positive

Source: PubChem BioAssay AID1259407 (Chemical Carcinogenesis Research Information System (CCRIS), 2018)
